What was measured:
Hp 0 mice = assay: Chronic supplementation with vitamin E, renal hypertrophy in Hp 0 mice; type: in vivo, mouse
Experimental: (§1) Chronic supplementation with vitamin E. Wild-type or Hp 0 mice (n=5 in each group) were treated for 7 months with placebo (water) or vitamin E (Merck, racemic alpha-tocopherol acetate) at a concentration of 40 mg/kg/day administered daily in the drinking water from 4 weeks of age.
(§2) Preparation of renal tissue for morphometric and histochemical analysis. Mice were sacrificed with intraperitoneal injection of pentabarbitone sodium. Kidneys were excised and weighed and the half-middle portion was fixed in 4% buffered BP formaldehyde solution (Gadot, Netanya, Israel) and embedded in paraffin. For both the morphometric and histochemical analysis, there were four mice in each of the six groups (wild type, Hp 0, and Hp 2, with and without diabetes).
(§3) Statistical analysis. Values are reported as the mean±SEM. Comparisons between groups were performed using two-way ANOVA under a general linear model, with Hp phenotype as one factor and time, presence of diabetes, or treatment with vitamin E as the second factor. Pairwise comparisons were carried out using the Fisher's protected least significant difference (PLSD) test. A p-value of less than 0.05 was taken as being statistically significant. Statistical analyses were performed using the SPSS statistical software version 11.5 (Chicago, Ill.). […]

Wild-type mice = assay: Chronic supplementation with vitamin E, renal mass in wild-type mice; type: in vivo, mouse; conditions: WT mice, 40 mg/kg/day vitamin E orally from 4 weeks, sacrificed at 8 months, mean±SEM, n=5
Experimental: as §1, §2, §3

CC(=O)Oc1c(C)c(C)c2c(c1C)CC[C@@](C)(CCC[C@H](C)CCC[C@H](C)CCCC(C)C)O2 (racemic) [Vitamin E, racemic alpha-tocopherol acetate]
RM/BM (renal mass normalized for body weight) (Hp 0 mice; 40 mg/kg/day vitamin E orally from 4 weeks, sacrificed at 8 months, mean±SEM, n=5): 11.01 ± 0.24 mg/g | renal mass in Hp 0 animals receiving vitamin E compared to Hp 0 mice who did not receive vitamin E (Hp 0 mice; vitamin E for 7 months): reduced | RM/BM (renal mass normalized for body weight) (Wild-type mice): 11.42 ± 0.98 mg/g

Reference: US20070101445A1, “Transgenic mice carrying the HP-2 gene and uses as models for vascular diseases” (priority 2005, published 2007)
